Laboratory results taken from patent US20260219194A1, “BIOSENSOR FOR WATER ANALYSIS” (BIOCELL ANALYTICA UPPSALA AB, priority 2023, published 2026).

System: estrogen responsive promoter (four repeats of estrogen response element, ERE) in MCF-7/S0.5 reporter cells
Experiment: Estrogen-responsive NanoLuc luciferase reporter assay in transfected MCF-7/S0.5 cells, luminescence in culture medium without cell lysis
Format: cell-based, human
Conditions: MCF-7/S0.5 reporter cells exposed for 24 h to 0.03 to 109 ng/L
Procedure: MCF-7/S0.5 human breast cancer cells (Sigma-Aldrich, catalogue no. SCC100) were cultured in medium supplemented with 1% charcoal-stripped fetal bovine serum (FBS) for 48 hours prior to seeding. The cells were then seeded in medium supplemented with 1% FBS and incubated for 48 hours. […]
The luminescence was measured in the cell culture medium by a Spark® Multimode Microplate Reader (Tecan) from three experimental groups: a) negative control with only cell culture medium but no cells, b) cell culture medium and non-transfected cells, and c) cell cultured medium and cells transfected with the reporter plasmid mentioned above (“reporter cells”).
The MCF-7/S0.5 cells transfected with the reporter plasmid where the expression of NanoLuc® luciferase with an N-terminal secretion signal was under the regulation of an estrogen responsive promoter produced in Example 1 were exposed for 24 h to increasing concentrations of 17β-estradiol, ranging from 0.03 to 109 ng/L. The luminescence was then analyzed in the cell culture medium, without cell lysis.

With `C[C@]12CC[C@@H]3c4ccc(O)cc4CC[C@H]3[C@@H]1CC[C@@H]2O` [E2, 17β-estradiol] the “amount of NanoLuc luciferase secreted into the cell culture medium” value (FIG. 6) was “increasing with increasing concentration of E2” and the “effect concentration 20% (EC20)” value (luminescence of secreted NanoLuc luciferase in cell culture medium) was 0.00019 ng/mL.
